Measured values as given in PubChem BioAssay (NCI).
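Protocol summary: plate cells (96-well), add compound at 5 concentrations, incubate 48 h, interpolate endpoints linearly. GI50 = concentration required for 50% inhibition of growth. TGI: total growth inhibition.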

Experiments:
Assay in all cases: NCI-60 cell line screen, 48 h
[1] = tested on: SK-OV-3 ovarian
[2] = tested on: U251 CNS
[3] = tested on: SK-MEL-28 melanoma
[4] = tested on: HCT-116 colon
[5] = tested on: HCT-15 colon
[6] = tested on: ACHN renal
[7] = tested on: NCI-H23 lung
[8] = tested on: COLO 205 colon
[9] = tested on: SR leukemia
[10] = tested on: KM12 colon

SMILES | TGI [1] [µM] | TGI [2] [µM] | TGI [3] [µM] | TGI [4] [µM] | TGI [5] [µM] | TGI [6] [µM] | TGI [7] [µM] | TGI [8] [µM] | TGI [9] [µM] | TGI [10] [µM] | GI50 [1] [nM] | GI50 [3] [nM] | GI50 [5] [nM] | GI50 [6] [nM] | GI50 [7] [nM]
CCOC(=O)C(C(=S)Nc1ccccc1)c1nn2c(=O)cc(C)nc2s1 (stereo not given) | 65.7 | 83 | 53.4 | 48.3 | 85 | 66.6 | 89.5 | 39.5 | 80.9 | 68.8 | – | – | – | – | –
COc1ccc(/C=C2\N=C(c3ccccc3)N(N=C3NC(=O)CC(=O)N3)C2=O)cc1 | > 100 | > 100 | > 100 | > 100 | > 100 | > 100 | > 100 | > 100 | > 100 | > 100 | – | – | – | – | –
O=c1oc2cc(O)ccc2c(O)c1C(c1cccnc1)c1c(O)c2ccc(O)cc2oc1=O | > 100 | > 100 | > 100 | > 100 | > 100 | > 100 | > 100 | > 100 | > 100 | > 100 | – | – | – | – | –
N=C(N)SCc1ccc(Cl)cc1Cl (tested in a mixture with another compound) | 40.2 | 28.5 | 45.3 | 25 | 35.1 | 23.1 | 32.4 | 39.6 | 22.8 | 28.2 | – | – | – | – | –
Cc1ccc(-n2[nH]nc(C#N)c2=O)cc1 | > 100 | > 100 | > 100 | > 100 | > 100 | > 100 | > 100 | > 100 | – | > 100 | – | – | – | – | –
COCOc1c(C(O[Si](C)(C)C(C)(C)C)c2cnc(Sc3ccccc3)n2C)ccc(OC)c1OC (stereo not given) | 7.74 | 3.1 | 4.18 | 2.95 | 4.32 | 6.98 | > 100 | – | 7.74 | 3.93 | – | – | – | – | –
Nc1[nH]c(=S)nc2snnc12 | > 100 | – | > 100 | > 100 | > 100 | > 100 | > 100 | > 100 | > 100 | > 100 | – | – | – | – | –
CC1OC(O[C@H]2C3C=CO[C@@H](OC4OC(CO)C(O)C(O)C4O)C3[C@@]3(COC(=O)/C=C/c4ccc(O)cc4)O[C@@H]23)C(O)C(O)C1O (stereo not given in full) | > 100 | > 100 | > 100 | > 100 | > 100 | > 100 | > 100 | > 100 | – | > 100 | – | – | – | – | –
N#CCCC1(CCC#N)CCCCCCCCC(CCC#N)(CCC#N)C(=O)C1=O | > 100 | > 100 | > 100 | > 100 | > 100 | > 100 | > 100 | > 100 | > 100 | > 100 | – | – | – | – | –
Cn1c2ccccc2c2c(=O)[nH]c(=O)[nH]c21 | > 100 | > 100 | > 100 | > 100 | > 100 | > 100 | > 100 | > 100 | > 100 | > 100 | – | – | – | – | –
COC(=O)c1ccc(C)cc1/C=C1\Cc2ccc(C)cc2C1=O | – | 32.3 | 34.6 | 23.2 | 43.1 | > 100 | 99.4 | 25.1 | 9.13 | 33.8 | – | – | – | – | –
CC(=O)OC(CCC1(C)OC1COc1ccc(CCNC(=O)c2ccccc2)cc1)C(C)(C)OC(C)=O (stereo not given) | > 100 | > 100 | 91.8 | 45.5 | > 100 | > 100 | 97.2 | 58.4 | > 100 | 33.7 | – | – | – | – | –
COc1ccc(/C=c2\sc3n(c2=O)C(N)=C(C#N)C(c2ccc(OC)cc2)C=3c2nc3ccccc3[nH]2)cc1 (stereo not given) | – | 34.4 | 56.1 | 64.1 | 59.2 | > 100 | 20.2 | > 100 | > 100 | 31 | – | – | – | – | –
COC(=O)C1CCC(=O)N1C(c1ccc(OC)cc1)c1ccc(OC)cc1 (stereo not given) | > 100 | > 100 | > 100 | > 100 | > 100 | > 100 | > 100 | > 100 | > 100 | > 100 | – | – | – | – | –
CC(C)(C)c1cc(C2=NN(c3ccccc3)C(c3ccccc3)C2)cc(C(C)(C)C)c1O (stereo not given) | > 100 | > 100 | > 100 | > 100 | > 100 | > 100 | > 100 | > 100 | > 100 | > 100 | – | – | – | – | –
Cc1cc(NC[C@H](O)[C@H](O)[C@H](O)CO)c(Sc2cc(=O)[nH]c(=O)[nH]2)cc1C | > 62.5 | > 62.5 | > 62.5 | > 62.5 | > 62.5 | > 62.5 | > 62.5 | > 62.5 | > 62.5 | > 62.5 | – | – | – | – | –
N#C/C(=C\c1cc(Cl)cc(Cl)c1)c1ccccn1 | > 100 | > 100 | > 100 | > 100 | > 100 | > 100 | > 100 | > 100 | > 100 | > 100 | – | – | – | – | –
CSCCCNC(=O)c1csc(-c2csc(C(CNC(=O)OC(C)(C)C)CNC(=O)OC(C)(C)C)n2)n1 | > 100 | 71.5 | – | > 100 | > 100 | > 100 | > 100 | > 100 | 70.1 | > 100 | – | – | – | – | –
CN1C(=O)[C@@H]2[C@@H]3c4ccccc4N(S(=O)(=O)C(F)(F)F)[C@@H]3c3[nH]c4ccccc4c3[C@@H]2C1=O | > 100 | > 100 | > 100 | > 100 | > 100 | > 100 | > 100 | > 100 | 43 | – | – | – | – | – | –
CCCCCCCCCCCCCC[n+]1ccc2c(C)c3c(c(C)c2c1)c1cc(O)ccc1n3CC | 0.849 | – | 1.73 | – | 3.5 | 3.9 | 1.02 | – | – | – | 280 | 496 | 1210 | 1220 | 223
COC(=O)/C=C/c1ccc2c(c1)CC1(C2)Cc2cc3c(cc2C1=O)CCC3 (stereo not given) | – | > 100 | > 100 | > 100 | > 100 | > 100 | – | > 100 | > 100 | > 100 | – | – | – | – | –
